Data: ChEMBL document CHEMBL3045098, “Petra, Osiris and Molinspiration (POM) together as a successful support in drug design: antibacterial activity and biopharmaceutical characterization of some azo Schiff bases” (2012)
Active and inactive are the calls of the source. The calls are words filed in the database; no cut-off is given here.

Experiments:
Format in all cases: functional
Klebsiella pneumoniae [1] = experiment: Antimicrobial activity against Klebsiella pneumoniae at 2000 ug after 24 hr by disk diffusion method relative to control
Pseudomonas aeruginosa [2] = experiment: Antimicrobial activity against Pseudomonas aeruginosa at 2000 ug after 24 hr by disk diffusion method relative to control
Escherichia coli [3] = experiment: Antimicrobial activity against Escherichia coli at 2000 ug after 24 hr by disk diffusion method relative to control
Bacillus subtilis [4] = experiment: Antimicrobial activity against Bacillus subtilis at 2000 ug after 24 hr by disk diffusion method relative to control
Staphylococcus aureus [5] = experiment: Antimicrobial activity against Staphylococcus aureus at 2000 ug after 24 hr by disk diffusion method; settings: read-out: IZ
Staphylococcus aureus [6] = experiment: Antimicrobial activity against Staphylococcus aureus at 2000 ug after 24 hr by disk diffusion method relative to control
Bacillus subtilis [7] = experiment: Antimicrobial activity against Bacillus subtilis at 2000 ug after 24 hr by disk diffusion method; settings: read-out: IZ
Klebsiella pneumoniae [8] = experiment: Antimicrobial activity against Klebsiella pneumoniae at 2000 ug after 24 hr by disk diffusion method; settings: read-out: IZ
Pseudomonas aeruginosa [9] = experiment: Antimicrobial activity against Pseudomonas aeruginosa at 2000 ug after 24 hr by disk diffusion method; settings: read-out: IZ
Escherichia coli [10] = experiment: Antimicrobial activity against Escherichia coli at 2000 ug after 24 hr by disk diffusion method; settings: read-out: IZ

SMILES: COc1ccc(/N=N/c2cc(/C=N/c3ccccc3OC)c(O)c(OC)c2)cc1
- inhibition (Klebsiella pneumoniae [1]): inactive
- inhibition (Pseudomonas aeruginosa [2]): inactive
- inhibition (Escherichia coli [3]): inactive

SMILES: COc1ccc(/N=N/c2cc(/C=N/c3cccc(OC)c3)c(O)c(OC)c2)cc1
- inhibition (Klebsiella pneumoniae [1]): inactive
- inhibition (INH) (Bacillus subtilis [4]): 45%
- inhibition (Pseudomonas aeruginosa [2]): inactive
- inhibition (Escherichia coli [3]): inactive
- zone of inhibition at 2000 µg/disc (Staphylococcus aureus [5]): 10 mm
- inhibition (INH) (Staphylococcus aureus [6]): 45%
- zone of inhibition at 2000 µg/disc (Bacillus subtilis [7]): 10 mm

SMILES: COc1ccc(/N=C/c2cc(/N=N/c3ccc(OC)cc3)cc(OC)c2O)cc1
- inhibition (Klebsiella pneumoniae [1]): inactive
- inhibition (Pseudomonas aeruginosa [2]): inactive
- inhibition (Escherichia coli [3]): inactive

SMILES: COc1ccc(/N=N/c2cc(/C=N/c3cccc(O)c3)c(O)c(OC)c2)cc1
- inhibition (Klebsiella pneumoniae [1]): inactive
- inhibition (INH) (Bacillus subtilis [4]): 45%
- inhibition (Pseudomonas aeruginosa [2]): inactive
- inhibition (Escherichia coli [3]): inactive
- zone of inhibition at 2000 µg/disc (Staphylococcus aureus [5]): 10 mm
- inhibition (INH) (Staphylococcus aureus [6]): 45%
- zone of inhibition at 2000 µg/disc (Bacillus subtilis [7]): 10 mm

SMILES: COc1ccc(/N=N/c2cc(/C=N/c3ccc(Oc4cccc(/N=C/c5cc(/N=N/c6ccc(OC)cc6)cc(OC)c5O)c4)cc3)c(O)c(OC)c2)cc1
- inhibition (Klebsiella pneumoniae [1]): inactive
- inhibition (Pseudomonas aeruginosa [2]): inactive
- inhibition (Escherichia coli [3]): inactive

SMILES: COc1ccc(/N=N/c2cc(/C=N/c3cccc(C)c3)c(O)c(OC)c2)cc1
- inhibition (Klebsiella pneumoniae [1]): inactive
- inhibition (INH) (Bacillus subtilis [4]): 45%
- inhibition (Pseudomonas aeruginosa [2]): inactive
- inhibition (Escherichia coli [3]): inactive
- zone of inhibition at 2000 µg/disc (Staphylococcus aureus [5]): 10 mm
- inhibition (INH) (Staphylococcus aureus [6]): 45%
- zone of inhibition at 2000 µg/disc (Bacillus subtilis [7]): 10 mm

SMILES: COc1ccc(/N=N/c2cc(/C=N/c3ccc(S(=O)(=O)c4cccc(/N=C/c5cc(/N=N/c6ccc(OC)cc6)cc(OC)c5O)c4)cc3)c(O)c(OC)c2)cc1
- inhibition (Klebsiella pneumoniae [1]): inactive
- inhibition (INH) (Bacillus subtilis [4]): 64%
- inhibition (Pseudomonas aeruginosa [2]): inactive
- inhibition (Escherichia coli [3]): inactive
- zone of inhibition at 2000 µg/disc (Staphylococcus aureus [5]): 10 mm
- inhibition (INH) (Staphylococcus aureus [6]): 45%
- zone of inhibition at 2000 µg/disc (Bacillus subtilis [7]): 14 mm

SMILES: COc1ccc(/N=N/c2cc(/C=N/c3ccccc3)c(O)c(OC)c2)cc1
- inhibition (Klebsiella pneumoniae [1]): inactive
- inhibition (INH) (Bacillus subtilis [4]): 45%
- inhibition (Pseudomonas aeruginosa [2]): inactive
- inhibition (Escherichia coli [3]): inactive
- zone of inhibition at 2000 µg/disc (Staphylococcus aureus [5]): 10 mm
- inhibition (INH) (Staphylococcus aureus [6]): 45%
- zone of inhibition at 2000 µg/disc (Bacillus subtilis [7]): 10 mm

SMILES: COc1ccc(/N=N/c2cc(/C=N/c3ccccc3C)c(O)c(OC)c2)cc1
- inhibition (Klebsiella pneumoniae [1]): inactive
- inhibition (Pseudomonas aeruginosa [2]): inactive
- inhibition (Escherichia coli [3]): inactive

SMILES: COc1ccc(/N=N/c2cc(C=O)c(O)c(OC)c2)cc1
- inhibition (Klebsiella pneumoniae [1]): inactive
- inhibition (INH) (Bacillus subtilis [4]): 45%
- inhibition (Pseudomonas aeruginosa [2]): inactive
- inhibition (Escherichia coli [3]): inactive
- zone of inhibition at 2000 µg/disc (Staphylococcus aureus [5]): 10 mm
- inhibition (INH) (Staphylococcus aureus [6]): 45%
- zone of inhibition at 2000 µg/disc (Bacillus subtilis [7]): 10 mm

SMILES: CC1(C)S[C@@H]2[C@H](NC(=O)[C@H](N)c3ccccc3)C(=O)N2[C@H]1C(=O)O
- inhibition (Klebsiella pneumoniae [1]): inactive
- inhibition (Pseudomonas aeruginosa [2]): inactive
- inhibition (Escherichia coli [3]): inactive

SMILES: CN[C@@H]1[C@H](O[C@H]2[C@H](O[C@H]3[C@H](O)[C@@H](O)[C@H](N=C(N)N)[C@@H](O)[C@@H]3N=C(N)N)O[C@@H](C)[C@]2(O)C=O)O[C@@H](CO)[C@H](O)[C@H]1O [STREPTOMYCIN]
- inhibition (INH) (Klebsiella pneumoniae [1]): 64%
- inhibition (INH) (Bacillus subtilis [4]): 64%
- inhibition (INH) (Pseudomonas aeruginosa [2]): 64%
- inhibition (INH) (Escherichia coli [3]): 64%
- zone of inhibition at 2000 µg/disc (Klebsiella pneumoniae [8]): 14 mm
- zone of inhibition at 2000 µg/disc (Staphylococcus aureus [5]): 10 mm
- inhibition (INH) (Staphylococcus aureus [6]): 45%
- zone of inhibition at 2000 µg/disc (Pseudomonas aeruginosa [9]): 14 mm
- zone of inhibition at 2000 µg/disc (Bacillus subtilis [7]): 14 mm
- zone of inhibition at 2000 µg/disc (Escherichia coli [10]): 14 mm

SMILES: COc1ccc(/N=N/c2cc(/C=N/Cc3ccccc3)c(O)c(OC)c2)cc1
- inhibition (Klebsiella pneumoniae [1]): inactive
- inhibition (Pseudomonas aeruginosa [2]): inactive
- inhibition (Escherichia coli [3]): inactive
